Results: article PMC7442133, “Reduced treatment frequencies with bumped kinase inhibitor 1369 are effective against porcine cystoisosporosis” (International Journal for Parasitology: Drugs and Drug …, 2020)

Columns and labels:
C. suis merozoites = assay: Merozoite replication (growth) inhibition in infected IPEC-1 cultures, free merozoites counted 9 dpi; type: cell-based, Cystoisospora suis; conditions: for Decrease of total merozoite counts: 400 nM once at 2 dpi, vs DMSO-only and no-treatment controls; for Merozoite replication at 9 dpi: 50 nM, P < 0.05 vs DMSO-only and no-treatment
Experimental: The laboratory strain C. suis Wien I ([Joachim and Mundt, 2011]), was maintained by passage in suckling piglets every 3–6 months and infectivity in vivo was assessed regularly at the Institute of Parasitology, University of Veterinary Medicine, Vienna. Oocysts were purified from collected feces, brought to sporulation and stored as described elsewhere ([Worliczek et al., 2013]). For in vitro studies, sporozoites were excysted ([Worliczek et al., 2013]), enumerated with a hemocytometer and used immediately for infection of semi-permanent intestinal porcine epithelial cells (IPEC-1). For in vivo studies, sporulated oocysts were washed with tap water and enumerated prior to infection of piglets.
IPEC-1 cells were maintained in culture medium at 37 °C and 5% CO2 (DHEM/HAM12 supplemented with 5% fetal calf serum and penicillin/streptomycin; Gibco via Thermo Fisher, Vienna, Austria). Cells (4 × 10^4) were used to seed 24-well plates and grown to confluence. All BKI compounds were stored as 20 mM stock solutions in 100% dimethyl sulfoxide (DMSO) at −20 °C. Cell viability in the presence of DMSO and BKIs was determined by colorimetric cell proliferation (WST-1) assays ([Shrestha et al., 2019]). In addition IPEC-1 cells were infected with serial dilutions of C. suis sporozoites, obtained after excystation to evaluate the growth curves of merozoites during 5–9 days of cultivation. To determine the effect of BKI 1369 on parasite replication, sporozoites (5 × 10^2) were added to each well one day after seeding of host cells and incubated with different concentrations of BKI 1369 at 40 °C for various time periods or a DMSO control, in triplicate.
In order to test whether BKI 1369 affects initial host cell invasion by C. suis, freshly excysted sporozoites were pre-incubated with BKI 1369 or DMSO for 6 h at 37 °C. Subsequently, sporozoites were washed with medium and used for infection of cell monolayers (5 × 10^2/well), in triplicate. Readout for both growth (merozoite replication) and invasion-inhibition experiments was microscopical evaluation by counting free merozoites 9 days post-infection (dpi) from culture supernatants. Supernatants were collected and free merozoites were counted in pooled samples at 9 dpi from quadruplicate wells in C-Chip disposable hemocytometers (NanoEnTek/Roth Lactan, Graz, Austria). All assays included DMSO and no-treatment controls in quadruplicate.
Statistical calculations for in vivo trials were performed with RStudio version 1.1.453 (RStudio Team, 2018), descriptive statistics with Microsoft Excel 2010 (Microsoft Inc., Vienna, Austria) and GraphPad Prism version 5.04 for Windows (GraphPad Software, San Diego, California USA). Differences in clinical and parasitological parameters between groups were analyzed with ANOVA in the case of normal distribution and variance homogeneity of the data, or a Kruskal-Wallis rank sum test if this was not the case. In the event of significance for the omnibus tests, parametric or non-parametric post-hoc tests for multiple comparisons were performed (according to Tukey and Conover, respectively), with P-value adjustment after Bonferroni. In vitro assays were evaluated by t-tests with significance reported at P < 0.05. For testing of efficacy in vitro, the percentage of growth/invasion inhibition was calculated as follows: % inhibition = (1−No. of merozoites counted at 9 dpi in BKI 1369 treated culture /No. of merozoites counted at 9 dpi in DMSO-only treated culture)x100

[1] = set-up: species or system piglets; conditions: in vivo
Experimental: In experiment II, additional fecal samples were collected from piglets which shed oocysts after treatment with BKI 1369. Fecal DNA preparation was carried out by established procedures. PCR assays were used for the amplification of the genomic DNA fragments encoding CsCDPK1. PCR assays used primers upstream (166 and 91 base pairs of the start codon) and downstream (89 and 39 base pairs) of the CsCDPK1 stop codon fragment to generate templates for a subsequent nested run. Nested PCR amplification of the 5955 base pair fragment was achieved using the primer pair LIC_CsCDPK_Fwd: […] and LIC_CsCDPK_Rev: […]. PCR amplicons were cloned into TA TOPO 2 vectors (Invitrogen, Carlsbad, California, USA) and sequenced at GENEWIZ Inc. (Seattle, USA) to confirm the presence or absence of mutations that could affect drug sensitivity. Moreover, two piglets from each group were sacrificed at the end of the study (SD 29; 24 days after treatment) and tissue samples (liver, muscle, kidney, backfat, jejunum) were collected and processed similar to the fecal samples in experiment I, except that 20 nM propranolol was used as an internal standard instead of 100 μM, to determine residues of BKI 1369 and its metabolites.
Tissue and feces from vehicle control treated piglets were used as blanks or standards. Calibration curves for BKI 1369, BKI 1318, and BKI 1817 were prepared by adding 2 μL BKI in dimethylsulfoxide (DMSO) to 18 μL tissue or feces controls to generate nominal concentrations of 0.004, 0.008, 0.02, 0.04, 0.08, 0.2, 0.4, 0.8, 2, 5, 10, and 20 μM. Calibration curves were generated separately for each tissue type and feces.
5 μL of tissue homogenate curves and samples were added to tubes that contained 95 μL of 80:20 acetonitrile: water. As an internal standard, propranolol was added to each sample to a final concentration of 20 nM. Samples were dried to completion using a miVac Duo Concentrator (SP Scientific, Pennsylvania, USA) at 35 °C. Sample processing for feces was similar but utilized a slightly different process to concentrate the sample as explained in the methods. Dried Samples were sealed and shipped to the University of Washington for LC-MS/MS analysis.

SMILES	Decrease of total merozoite counts (C. suis merozoites) [%]	Residue in liver [1]	Merozoite replication at 9 dpi (C. suis merozoites; incubation 0–3 dpi)	Merozoite replication at 9 dpi (C. suis merozoites; incubation 3–6 dpi)	Concentrations giving significant reduction of merozoite replication at 9 dpi (C. suis merozoites; single application 2 dpi) [nM]	Quantifiable residue values, all tissue types [1]	Residue in fat [1]	Residue in jejunum [1]
CCOc1ccc2cc(-c3nn(CC4CCNCC4)c4ncnc(N)c34)ccc2n1 [BKI 1318]	85.1	-Samples above LoQ BKI 1318: N/A -Samples above background, but below LoQ BKI 1318: liver from piglet 304 and muscle from piglet 302						
CCOc1ccc2cc(-c3nn(CC4CCN(C)CC4)c4ncnc(N)c34)ccc2n1 [BKI 1369]	96.1		significantly inhibited merozoite replication	significantly inhibited merozoite replication	≥ 200	below 0.2 μM	above background, but below LoQ	above background, but below LoQ
